Data published in the supplement of paper PMC10307832.

Tests used:
Experiment in all cases: relative viability (nuclei count vs DMSO), 5 days (fraction); higher = more cells survive
Palbociclib + AZD7762 = compound: CC(=O)c1c(C)c2cnc(Nc3ccc(N4CCNCC4)cn3)nc2n(C2CCCC2)c1=O [Palbociclib] + NC(=O)Nc1cc(-c2cccc(F)c2)sc1C(=O)N[C@H]1CCCNC1 [AZD7762] (partner 0.2 µM)
In short: (§1)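 Five library-drug doses in √10 steps were combined with a fixed anchor-drug dose, or a single drug was given alone, by pin tool to lung cancer cell lines in 1536-well plates the day after seeding. Nuclei were stained and counted after 5 days. Relative viability is the nuclei count in treated wells over that in vehicle wells, taken as the median of duplicate plates.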

Palbociclib + Navitoclax = compound: CC(=O)c1c(C)c2cnc(Nc3ccc(N4CCNCC4)cn3)nc2n(C2CCCC2)c1=O [Palbociclib] + CC1(C)CCC(c2ccc(Cl)cc2)=C(CN2CCN(c3ccc(C(=O)NS(=O)(=O)c4ccc(N[C@H](CCN5CCOCC5)CSc5ccccc5)c(S(=O)(=O)C(F)(F)F)c4)cc3)CC2)C1 [Navitoclax] (partner 0.5 µM)
In short: as §1

Palbociclib + Phenformin = compound: CC(=O)c1c(C)c2cnc(Nc3ccc(N4CCNCC4)cn3)nc2n(C2CCCC2)c1=O [Palbociclib] + N=C(N)NC(=N)NCCc1ccccc1 [Phenformin] (partner 250 µM)
In short: as §1

Palbociclib + Tozasertib = compound: CC(=O)c1c(C)c2cnc(Nc3ccc(N4CCNCC4)cn3)nc2n(C2CCCC2)c1=O [Palbociclib] + Cc1cc(Nc2cc(N3CCN(C)CC3)nc(Sc3ccc(NC(=O)C4CC4)cc3)n2)n[nH]1 [Tozasertib] (partner 0.1 µM)
In short: as §1

| Cell Line | relative viability (Palbociclib + AZD7762; first compound 0.01 µM) | relative viability (Palbociclib + AZD7762; first compound 0.03162 µM) | relative viability (Palbociclib + AZD7762; first compound 0.1 µM) | relative viability (Palbociclib + AZD7762; first compound 0.3162 µM) | relative viability (Palbociclib + AZD7762; first compound 1 µM) | relative viability (Palbociclib + Navitoclax; first compound 0.01 µM) | relative viability (Palbociclib + Navitoclax; first compound 0.1 µM) | relative viability (Palbociclib + Navitoclax; first compound 0.3162 µM) | relative viability (Palbociclib + Navitoclax; first compound 1 µM) | relative viability (Palbociclib + Phenformin; first compound 0.01 µM) | relative viability (Palbociclib + Phenformin; first compound 0.1 µM) | relative viability (Palbociclib + Phenformin; first compound 0.3162 µM) | relative viability (Palbociclib + Phenformin; first compound 1 µM) | relative viability (Palbociclib + Tozasertib; first compound 0.01 µM) | relative viability (Palbociclib + Tozasertib; first compound 0.1 µM) | relative viability (Palbociclib + Tozasertib; first compound 0.3162 µM) | relative viability (Palbociclib + Tozasertib; first compound 1 µM) | relative viability (Palbociclib + Navitoclax; first compound 0.03162 µM) | relative viability (Palbociclib + Phenformin; first compound 0.03162 µM) | relative viability (Palbociclib + Tozasertib; first compound 0.03162 µM) |
| --- | --- | --- | --- | --- | --- | --- | --- | --- | --- | --- | --- | --- | --- | --- | --- | --- | --- | --- | --- | --- |
| NCI-H23 | 0.304 | 0.324 | 0.268 | 0.248 | 0.217 | 1.13 | 0.79 | 0.789 | 0.572 | 0.795 | 0.704 | 0.781 | 0.506 | 0.335 | 0.381 | 0.378 | 0.412 |  |  |  |
| A-427 | 0.778 | 0.653 | 0.472 | 0.469 | 0.43 | 0.978 | 0.869 | 0.874 | 0.656 | 0.392 | 0.282 | 0.269 | 0.212 | 0.203 | 0.224 | 0.227 | 0.209 | 0.941 | 0.2 | 0.205 |
| LOU-NH91 | 0.753 | 0.679 | 0.62 | 0.572 | 0.528 | 0.721 | 0.457 | 0.505 | 0.462 | 0.832 | 0.503 | 0.504 | 0.472 | 0.778 | 0.541 | 0.575 | 0.452 | 0.491 | 0.563 | 0.51 |
